Test results reported in US20070010489A1 (priority 2002, published 2007).
Read-outs that look alike come from different tables or passages of the source.

Legend:
HIV = assay: microbe, parasite or virus in culture; format: cell-based; details: Human immunodeficiency virus 1
I50V (#1) = tested on: I50V (#1); parameters: key to the marks not given beside the values
I84V/L90M = tested on: I84V/L90M; parameters: key to the marks not given beside the values
84V90M [1] = target: T1, 84V90M (Human immunodeficiency virus type 1 group M subtype B, UniProt P04585, I572V/L578M); assay: cell-based; parameters: species or system HIV; details: Cell-based assay (MT-4)
30N82I88D = assay: microbe, parasite or virus in culture; format: cell-based, HIV; details: Cell-based assay (MT-4), 30N82I88D; read-out: EC50 30N 82I88D
WT = assay: microbe, parasite or virus in culture; format: cell-based, HIV; details: read-out: EC50 WT
48V54V82A = assay: microbe, parasite or virus in culture; format: cell-based, HIV; details: Cell-based assay (MT-4), 48V54V82A; read-out: EC50 48V54V 82A
46I50V = assay: microbe, parasite or virus in culture; format: cell-based, HIV; details: Cell-based assay (MT-4), 46I50V; read-out: EC50 46I50V
84V90M [2] = target: T1, 84V90M; format: biochemical, HIV; details: Enzymatic assay
48V82A90M = assay: microbe, parasite or virus in culture; format: cell-based, HIV; details: read-out: EC50 48V82A 90M; Cell-based assay (MT-4), 48V82A90M
48V54V82S = assay: microbe, parasite or virus in culture; format: cell-based, HIV; details: Cell-based assay (MT-4), 48V54V82S; read-out: EC50 48V54V 82S
84V90M [3] = target: T1, 84V90M; assay: biochemical; format: biochemical, HIV; details: Enzymatic assay
[4] = target: T2, recombinant HIV-1 protease (Human immunodeficiency virus type 1 group M subtype B, UniProt P04585); assay: biochemical; details: for Ki: read-out: Ki; for IC50: read-out: WT IC50
T2 construct: Enzyme: recombinant HIV-1 protease expressed in E. Coli; purchased Bachem California, Inc. H-9040; host or cells: E. coli

| SMILES | EC50 (HIV) [µM] | I84V/L90M fold change (I84V/L90M) | EC50 (84V90M [1]) [µM] | IC50 (84V90M [2]) [µM] | also measured |
| --- | --- | --- | --- | --- | --- |
| COc1ccc(S(=O)(=O)N(Cc2ccccc2)CC(O)C(Cc2ccccc2)NC(=O)OC2COC3OCCC23)cc1 (stereo not shown) | < 0.05 | +++ | – | – | I50V (#1) fold change (I50V (#1)): +++ |
| COc1ccc(S(=O)(=O)N(CC(O)C(Cc2ccccc2)NC(=O)OC2COC3OCCC23)CC(C)(C)CO)cc1 (stereo not shown) | < 0.05 | +++ | – | – | I50V (#1) fold change (I50V (#1)): +++ |
| COc1ccc(S(=O)(=O)N(CC(O)C(Cc2ccccc2)NC(=O)OC2COC3OCCC23)CC(C)(C)COCP(=O)(O)O)cc1 (stereo not shown) | 0.5 to 5 | +++ | – | – | – |
| CCOP(=O)(COCC(C)(C)CN(CC(O)C(Cc1ccccc1)NC(=O)OC1COC2OCCC12)S(=O)(=O)c1ccc(OC)cc1)OCC (stereo not shown) | < 0.05 | +++ | – | – | – |
| COc1ccc(S(=O)(=O)N(CC(O)C(Cc2ccccc2)NC(=O)OC2COC3OCCC23)CC(C)(C)COCP(=O)(OCc2ccccc2)OCc2ccccc2)cc1 (stereo not shown) | < 0.05 | ++ | – | – | – |
| COc1ccc(S(=O)(=O)N(CC(O)C(Cc2ccccc2)NC(=O)OC2COC3OCCC23)CC(C)(C)CCOCP(=O)(O)O)cc1 (stereo not shown) | 0.05 to 0.5 | ++ | – | – | I50V (#1) fold change (I50V (#1)): ++ |
| COc1ccc(S(=O)(=O)N(CC(O)C(Cc2ccccc2)NC(=O)OC2COC3OCCC23)CC(C)(C)CCOCP(=O)(OCc2ccccc2)OCc2ccccc2)cc1 (stereo not shown) | < 0.05 | +++ | – | – | I50V (#1) fold change (I50V (#1)): +++ |
| O=C1N(Cc2ccccc2)C(Cc2ccccc2)C(O)C(O)C(Cc2ccc(OCP(=O)(O)O)cc2)N1Cc1ccccc1 (stereo not shown) [listing 1 of 2 here] | – | – | 2.46 | 0.048 | EC50 (30N82I88D): 0.293 µM; EC50 (WT): 0.107 µM; EC50 (48V54V82A): 1.44 µM; EC50 (46I50V): 0.589 µM; EC50 (48V82A90M): 3.29 µM; EC50 (48V54V82S): 1.9 µM |
| O=C1N(Cc2ccccc2)C(Cc2ccccc2)C(O)C(O)C(Cc2ccc(OCP(=O)(OCc3ccccc3)OCc3ccccc3)cc2)N1Cc1ccccc1 (stereo not shown) | – | – | – | – | IC50 (84V90M [3]): 158 nM |
| O=C1N(Cc2ccccc2)C(Cc2ccccc2)C(O)C(O)C(Cc2ccc(OCP(=O)(O)O)cc2)N1Cc1ccccc1 (stereo not shown) [listing 2 of 2 here] | – | – | – | – | IC50 (84V90M [3]): 210 nM |
| Nc1n[nH]c2ccc(CN3C(=O)N(Cc4cccc(OCP(=O)(OCc5ccccc5)OCc5ccccc5)c4)C(Cc4ccccc4)C(O)C(O)C3Cc3ccccc3)cc12 (stereo not shown) | – | – | > 6 | 0.043 | Ki [4]: 0.000177 µM; IC50 [4]: 0.018 µM |
| CCOP(=O)(COc1cccc(CN2C(=O)N(Cc3ccc4[nH]nc(N)c4c3)C(Cc3ccccc3)C(O)C(O)C2Cc2ccccc2)c1)OCC (stereo not shown) | – | – | 3 | 0.169 | Ki [4]: 0.00193 µM; IC50 [4]: 0.07 µM |
| Nc1n[nH]c2ccc(CN3C(=O)N(Cc4ccc(OCP(=O)(OCc5ccccc5)OCc5ccccc5)cc4)C(Cc4ccccc4)C(O)C(O)C3Cc3ccccc3)cc12 (stereo not shown) | – | – | 4.96 | 2.04 | Ki [4]: > 0.005 µM; IC50 [4]: 0.276 µM |
| CCOP(=O)(COc1ccc(CN2C(=O)N(Cc3ccc4[nH]nc(N)c4c3)C(Cc3ccccc3)C(O)C(O)C2Cc2ccccc2)cc1)OCC (stereo not shown) | – | – | > 6 | 1.47 | Ki [4]: > 0.005 µM; IC50 [4]: 0.627 µM |
| Nc1n[nH]c2ccc(CN3C(=O)N(CCCCOCP(=O)(O)O)C(Cc4ccccc4)C(O)C(O)C3Cc3ccccc3)cc12 (stereo not shown) [CH2OCH2PO3H2] | – | – | > 4.24 | 0.205 | – |
